{
  "source": "patent US5712270A",
  "about": "“2-arylamidothiazole derivatives with CNS activity” (American Home Products Corporation, priority 1996, dated 1998)",
  "key": {"[1]": {"test_system": "scopolamine-induced hyperactivity", "experiment": "Reversal of scopolamine-induced hyperactivity in mice (swim tank)", "type": "in vivo, Male CFW mice", "conditions": "Mus musculus, ip, 5 min, 0.3 mg/kg scopolamine.HBr, i.p., mean swimming distance, read-out: minimum effective dose (MED), reversal of scopolamine hyperactivity", "method": "The compound of Example 1 was also tested in accordance with the procedure of Symons et al, Soc. Neuroscience Abstracts 12:2, 897 (1986) in which Male CFW mice, 25 to 35 grams in weight are given the test compound in suitable vehicle plus 0.3 mg/kg scopoolamine.HBr in suitable vehicle, i.p.(3 groups of 12 animals each) or vehicle alone (1 group of 12 animals ) or vehicle plus scopolamine. HBr (1 group of 12 animals). The rates are placed in a swim tank, individually, containing 10 cm H2 O for a period of 5 minutes and the distance each animal swims is recorded."}, "[2]": {"test_system": "memory in patients with mild to moderate Alzheimer's Disease", "conditions": "cited from earlier work; for memory improvement in patients: mild to moderate Alzheimer's Disease"}, "[3]": {"test_system": "serotonin 5-HT1A receptor", "conditions": "standard for anxiolytic activity; cited from earlier work"}},
  "data": [
    {"compound": "CN(C)CCOC(=O)c1csc(NC(=O)c2cc(C(C)(C)C)c(O)c(C(C)(C)C)c2)n1", "note": "[Example 1, 2-[[3,5,-Bis(1,1-dimethylethl)-4-hydroxybenzoyl]amino]-4-thiazolecarboxylicacid 2-(dimethylamino)ethyl ester]", "values": [
      {"measurement": "minimal effective dose", "setting": "[1]", "value": 3, "unit": "mg/kg"}
    ]},
    {"compound": "COC(=O)C1=CCCN(C)C1", "note": "[arecoline]", "values": [
      {"measurement": "memory improvement in patients", "setting": "[2]", "value": "memory improvement in patients with mild to moderate Alzheimer's Disease"}
    ]},
    {"compound": "O=C1CC2(CCCC2)CC(=O)N1CCCCN1CCN(c2ncccn2)CC1", "note": "[buspirone]", "values": [
      {"measurement": "affinity for the 5-HT1A serotonin receptor subtype (words, buspirone)", "setting": "[3]", "value": "potent affinity"}
    ]},
    {"compound": "Nc1c2c(nc3ccccc13)CCCC2", "note": "[tacrine]", "values": [
      {"measurement": "side effects", "setting": "[2]; especially at the higher doses", "value": "adverse side effects especially at the higher doses"},
      {"measurement": "memory improvement in patients", "setting": "[2]", "value": "improvement in memory can be shown in patients with mild to moderate Alzheimer's Disease"}
    ]}
  ]
}
